Biological target: Trypanothione reductase (Trypanosoma cruzi, UniProt P28593)
Sequence (P28593 whole entry): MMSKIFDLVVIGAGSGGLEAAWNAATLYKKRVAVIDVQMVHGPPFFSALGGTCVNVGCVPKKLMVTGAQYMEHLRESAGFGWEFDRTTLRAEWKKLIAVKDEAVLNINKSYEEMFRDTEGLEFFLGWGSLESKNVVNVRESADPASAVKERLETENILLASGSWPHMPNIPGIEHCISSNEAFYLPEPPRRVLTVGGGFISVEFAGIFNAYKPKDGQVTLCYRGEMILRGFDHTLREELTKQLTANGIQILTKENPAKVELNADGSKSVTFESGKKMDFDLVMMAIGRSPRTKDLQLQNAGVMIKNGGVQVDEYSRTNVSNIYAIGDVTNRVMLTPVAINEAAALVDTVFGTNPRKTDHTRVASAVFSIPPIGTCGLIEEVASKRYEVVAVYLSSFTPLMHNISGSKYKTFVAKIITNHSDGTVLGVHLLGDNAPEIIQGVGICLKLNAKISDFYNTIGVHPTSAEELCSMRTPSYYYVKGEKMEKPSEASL
Experiment: Inhibition of trypanothione reductase from Trypanosoma cruzi, in the presence 57 uM of trypanothione T(SH)2
`CN1CCN(CCC(=O)Nc2cc(Br)ccc2Sc2cccc(NC(=O)CCCC(=O)NCC3CCCCC3)c2)CC1` showed an IC50 of 47 µM. For `CCCCCCCCCCCCCCCCNC(=O)CCCC(=O)Nc1cccc(Sc2ccc(Br)cc2NC(=O)CCN2CCN(C)CC2)c1`, the IC50 was greater than 60 µM. Work on `CN1CCN(CCC(=O)Nc2cc(Br)ccc2Sc2cccc(NC(=O)CCCC(=O)NCC34C[C@H]5C[C@@H](C3)C[C@@H](C4)C5)c2)CC1` yielded an IC50 greater than 60 µM. `CN1CCN(CCC(=O)Nc2cc(Br)ccc2Sc2cccc(NC(=O)CCCCCC(=O)OCC3=C(Br)C(=O)c4ccccc4C3=O)c2)CC1` gave an IC50 of 41 µM. In the case of `CCCCCCCNC(=O)CCCC(=O)Nc1cccc(Sc2ccc(Br)cc2NC(=O)CCN2CCN(C)CC2)c1`, the IC50 is reported as 23 µM. `CN1CCN(CCC(=O)Nc2ccccc2Sc2cccc(NC(=O)CCCCCC(=O)Nc3cccc(Sc4ccccc4N)c3)c2)CC1` showed an IC50 of 1.8 µM. In the case of `CN1CCN(CCC(=O)Nc2cc(Br)ccc2Sc2cccc(NC(=O)CCCC(=O)NCc3ccccn3)c2)CC1`, the IC50 is reported as greater than 60 µM. Compound `CN1CCN(CCC(=O)Nc2cc(Br)ccc2Sc2cccc(NC(=O)CCCCCC(=O)Nc3ccccc3)c2)CC1` has an IC50 of 14 µM. `CN1CCN(CCC(=O)Nc2cc(Br)ccc2Sc2cccc(NC(=O)CCCC(=O)NCC3CCCO3)c2)CC1` (centres undefined) showed an IC50 greater than 60 µM. Compound `CN1CCN(CCC(=O)Nc2cc(Br)ccc2Sc2cccc(NC(=O)CCCC(=O)NCc3ccccc3)c2)CC1` has an IC50 of 35 µM. For `CN1CCN(CCC(=O)Nc2cc(Br)ccc2Sc2cccc(NC(=O)CCCC(=O)Nc3cccc(Sc4ccc(Br)cc4NC(=O)CCN4CCN(C)CC4)c3)c2)CC1`, the IC50 was 0.55 µM. `CN1CCN(CCC(=O)Nc2cc(Br)ccc2Sc2cccc(NC(=O)CCCC(=O)NCc3ccc4ccccc4c3)c2)CC1` gave an IC50 of 25 µM. In the case of `CN1CCN(CCC(=O)Nc2cc(Br)ccc2Sc2cccc(NC(=O)CCCCCC(=O)Nc3cccc(Sc4ccccc4[N+](=O)[O-])c3)c2)CC1`, the IC50 is reported as greater than 60 µM. `CN(C)Cc1ccc(Nc2ccc(NC(=O)CCCCCC(=O)Nc3cccc(Sc4ccc(Br)cc4NC(=O)CCN4CCN(C)CC4)c3)c3c2C(=O)c2ccccc2C3=O)cc1` gave an IC50 of 3.3 µM. `CN1CCN(CCC(=O)Nc2cc(Br)ccc2Sc2cccc(NC(=O)CCCCCC(=O)Nc3ccc(N)c4c3C(=O)c3ccccc3C4=O)c2)CC1` gave an IC50 greater than 60 µM. `CN1CCN(CCC(=O)Nc2cc(Br)ccc2Sc2cccc(NC(=O)CCCC(=O)NC(c3ccccc3)c3ccccc3)c2)CC1` gave an IC50 of 28 µM. Work on `CCN(CC)C(=O)CCCC(=O)Nc1cccc(Sc2ccc(Br)cc2NC(=O)CCN2CCN(C)CC2)c1` yielded an IC50 greater than 60 µM. In the case of `CN1CCN(CCC(=O)Nc2cc(Br)ccc2Sc2cccc(NC(=O)CCCCCC(=O)Nc3cccc(Sc4ccccc4N)c3)c2)CC1`, the IC50 is reported as 16 µM. Work on `CN1CCN(CCC(=O)Nc2cc(Br)ccc2Sc2cccc(NC(=O)CCCC(=O)NCCc3ccccc3)c2)CC1` yielded an IC50 of 20 µM. With `CN1CCN(CCC(=O)Nc2cc(Br)ccc2Sc2cccc(NC(=O)CCCC(=O)NCc3ccc4c(c3)OCO4)c2)CC1` the IC50 was 33 µM.

Tested on: not listed separately
Experiment: (§1) Michaelis constant was determined.
Assay type: ADME
For `CN1CCN(CCC(=O)Nc2cc(Br)ccc2Sc2cccc(NC(=O)CCCCCC(=O)OCC3=C(Br)C(=O)c4ccccc4C3=O)c2)CC1`, the Km was 160 µM.

Tested on: not listed separately
Experiment: as §1
`CC1=CC(=O)c2ccccc2C1=O` [MENADIONE] gave a Km of 882 µM.

Tested on: not listed separately
Experiment: Catalytic rate constant was determined
Assay type: ADME
For `CN1CCN(CCC(=O)Nc2cc(Br)ccc2Sc2cccc(NC(=O)CCCCCC(=O)OCC3=C(Br)C(=O)c4ccccc4C3=O)c2)CC1`, the “k cat/Km” value was 8400 M⁻¹ s⁻¹. In the case of `CC1=CC(=O)c2ccccc2C1=O` [MENADIONE], the “k cat/Km” value is reported as 50000 M⁻¹ s⁻¹.
